In patent publication US9962383B2, “Compounds, compositions and methods of agelastatin alkaloids” (Massachusetts Institute of Technology, priority 2013, dated 2018):

The compounds below were run on IMR90 (assay: 48-hour IC50 by SRB, IMR90  lung fibroblasts). Conditions: Homo sapiens, IMR-90, IMR90 immortalized lung fibroblasts.
Format: cell-based, human
Procedure: (§1) Cells were grown in media supplemented with fetal bovine serum (FBS) and antibiotics (100 μg/mL penicillin and 100 U/mL streptomycin). […] Cells were incubated at 37° C. in a 5% CO2, 95% humidity atmosphere.
(§2) Adherent cells (HeLa, A549, BT549, and IMR90) were added into 96-well plates (5,000 cells/well for HeLa cell line; 2,000 cells/well for A549, BT549, and IMR90 cell lines) in 100 μL media and were allowed to adhere for 2-3 hours. Compounds were solubilized in DMSO as 100× stocks, added directly to the cells (100 μL final volume), and tested over a range of concentrations (1 nM to 10 μM) in triplicate (1% DMSO final) on a half-log scale. DMSO and cell-free wells served as the live and dead control, respectively. […] Briefly, media was removed from the plate, and cells were fixed by the addition of 100 μL cold 10% trichloroacetic acid in water. After incubating at 4° C. for 1 h, the plates were washed in water and allowed to dry. Sulforhordamine B was added as a 0.057% solution in 1% acetic acid (100 μL), and the plates were incubated at room temperature for 30 min, washed in 1% acetic acid, and allowed to dry. […] IC50 values were determined from three or more independent experiments using TableCurve (San Jose, Calif.).

Compound	IC50 [µM]
CO[C@H]1NC(=O)c2ccc(Br)n2[C@@H]1Cc1c[nH]c(=O)n1C [(+)-39, (+)-O-methyl-pre-agelastatin A]	> 10

Same assay, conditions: IMR90 immortalized lung fibroblasts

Compound	IC50 [µM]
COC1NC(=O)c2ccc(Br)n2C1Cc1c[nH]c(=O)[nH]1 (single isomer, unassigned; (+)) [(+)-53, (+)-O-methyl-pre-agelastatin D]	> 10
(−)-O-methyl-di-epi-agelastatin A [(−)-50]	> 10
(−)-dehydroagelastatin A [(−)-51]	> 10
(−)-di-epi-agelastatin C [(−)-52]	> 10

These compounds were tested on human cell lines (U-937, HeLa, A549, BT549, IMR90) (assay: Ability to induce cell death in the panel of five human cell lines (Table 3)). Conditions: 48-hour exposure, 1 nM to 10 μM, cell lines of Table 3.
Format: cell-based
Procedure: Six (−)-agelastatins along with eight closely related derivatives prepared in the above examples were tested (Table 3). The six (−)-agelastatin alkaloids (1-6, respectively), (−)-O-methyl-di-epi-agelastatin A (50), (−)-dehydroagelastatin A (51), (−)-di-epi-agelastatin C (52), (+)-O-methyl-pre-agelastatin A and D (39 and 53, respectively), along with bicyclic pyrroles (+)-44, (+)-45, and triazone (+)-48 were tested for their ability to induce cell death in four human cancer cell lines (U-937, lymphoma; HeLa, cervical carcinoma; A549, non-small cell lung carcinoma; and BT549, breast carcinoma) and one immortalized normal human cell line (IMR90, lung fibroblasts) after a 48-hour exposure. […] Furthermore, enhanced activities in U-937 (20×) cell relative to the other cell lines (Table 3) were observed.
Adherent cells (HeLa, A549, BT549, and IMR90) were added into 96-well plates (5,000 cells/well for HeLa cell line; 2,000 cells/well for A549, BT549, and IMR90 cell lines) in 100 μL media and were allowed to adhere for 2-3 hours. Compounds were solubilized in DMSO as 100× stocks, added directly to the cells (100 μL final volume), and tested over a range of concentrations (1 nM to 10 μM) in triplicate (1% DMSO final) on a half-log scale. DMSO and cell-free wells served as the live and dead control, respectively. After 48 h of continuous exposure, the plates were evaluated using the SRB colorimetric assay as described previously (V. Vichai, K. Kirtikara, Nature Prot., 2006, 1, 1112). Briefly, media was removed from the plate, and cells were fixed by the addition of 100 μL cold 10% trichloroacetic acid in water. After incubating at 4° C. for 1 h, the plates were washed in water and allowed to dry. Sulforhordamine B was added as a 0.057% solution in 1% acetic acid (100 μL), and the plates were incubated at room temperature for 30 min, washed in 1% acetic acid, and allowed to dry. The dye was solubilized by adding 10 mM Tris base solution (pH 10.5, 200 μL) and incubating at room temperature for 30 min Plates were read at λ=510 nm. IC50 values were determined from three or more independent experiments using TableCurve (San Jose, Calif.).
In a 96-well plate, compounds were pre-added as DMSO stocks (1% final) in triplicate to achieve final concentrations of 1 nM to 10 μM on a half log scale. DMSO and cell-free wells served as the live and dead control, respectively. Suspension cells (U-937, CEM, CA46, Daudi, HL-60, and Jurkat; 10,000 cells/well) cells were distributed in 100 μL media to the compound-containing plate. After 48 h, cell viability was assessed by adding 20 μL of a PMS/MTS solution (A. H. Cory, T. C. Owen, J. A. Barltrop, J. G. Cory, Cancer Commun., 1991, 3, 207) to each well, allowing the dye to develop at 37° C. until the live control had processed MTS, and reading the absorbance at λ=490 nm. IC50 values were determined from three or more independent experiments using TableCurve (San Jose, Calif.).

Compound	activity (ability to induce cell death) in words
COC1NC(=O)c2ccc(Br)n2C1Cc1c[nH]c(=O)[nH]1 (single isomer, unassigned; (+)) [(+)-53, (+)-O-methyl-pre-agelastatin D]	None
CO[C@H]1NC(=O)c2ccc(Br)n2[C@@H]1Cc1c[nH]c(=O)n1C [(+)-39, (+)-O-methyl-pre-agelastatin A]	None
(−)-O-methyl-di-epi-agelastatin A [(−)-50]	None
(−)-dehydroagelastatin A [(−)-51]	None
(−)-di-epi-agelastatin C [(−)-52]	None

The compounds below were run on U-937 (assay: 48-hour IC50 by MTS, U-937 lymphoma cells). Conditions: not given.
Format: cell-based, human
Procedure: as §1
In a 96-well plate, compounds were pre-added as DMSO stocks (1% final) in triplicate to achieve final concentrations of 1 nM to 10 μM on a half log scale. DMSO and cell-free wells served as the live and dead control, respectively. […] IC50 values were determined from three or more independent experiments using TableCurve (San Jose, Calif.).

Compound	IC50 [µM]
COC1NC(=O)c2ccc(Br)n2C1Cc1c[nH]c(=O)[nH]1 (single isomer, unassigned; (+)) [(+)-53, (+)-O-methyl-pre-agelastatin D]	> 10
(−)-O-methyl-di-epi-agelastatin A [(−)-50]	> 10
(−)-dehydroagelastatin A [(−)-51]	> 10
(−)-di-epi-agelastatin C [(−)-52]	> 10

Same assay, conditions: Homo sapiens

Compound	IC50 [µM]
CO[C@H]1NC(=O)c2ccc(Br)n2[C@@H]1Cc1c[nH]c(=O)n1C [(+)-39, (+)-O-methyl-pre-agelastatin A]	> 10

The compounds below were run on BT549 (assay: 48-hour IC50 by SRB, BT549 breast carcinoma cells). Conditions: not given.
Format: cell-based, human
Procedure: as §1, §2

Compound	IC50 [µM]
COC1NC(=O)c2ccc(Br)n2C1Cc1c[nH]c(=O)[nH]1 (single isomer, unassigned; (+)) [(+)-53, (+)-O-methyl-pre-agelastatin D]	> 10
(−)-O-methyl-di-epi-agelastatin A [(−)-50]	> 10
(−)-dehydroagelastatin A [(−)-51]	> 10
(−)-di-epi-agelastatin C [(−)-52]	> 10

Same assay, conditions: Homo sapiens, BT-549

Compound	IC50 [µM]
CO[C@H]1NC(=O)c2ccc(Br)n2[C@@H]1Cc1c[nH]c(=O)n1C [(+)-39, (+)-O-methyl-pre-agelastatin A]	> 10

These compounds were tested on A549 (assay: 48-hour IC50 by SRB, A549 non-small cell lung carcinoma cells). Conditions: not given.
Format: cell-based, human
Procedure: as §1, §2

Compound	IC50 [µM]
COC1NC(=O)c2ccc(Br)n2C1Cc1c[nH]c(=O)[nH]1 (single isomer, unassigned; (+)) [(+)-53, (+)-O-methyl-pre-agelastatin D]	> 10
(−)-O-methyl-di-epi-agelastatin A [(−)-50]	> 10
(−)-dehydroagelastatin A [(−)-51]	> 10
(−)-di-epi-agelastatin C [(−)-52]	> 10

Same assay, conditions: Homo sapiens

Compound	IC50 [µM]
CO[C@H]1NC(=O)c2ccc(Br)n2[C@@H]1Cc1c[nH]c(=O)n1C [(+)-39, (+)-O-methyl-pre-agelastatin A]	> 10

The compounds below were run on HeLa (assay: 48-hour IC50 by SRB, HeLa cervical carcinoma cells). Conditions: not given.
Format: cell-based, human
Procedure: as §1, §2

Compound	IC50 [µM]
COC1NC(=O)c2ccc(Br)n2C1Cc1c[nH]c(=O)[nH]1 (single isomer, unassigned; (+)) [(+)-53, (+)-O-methyl-pre-agelastatin D]	> 10
(−)-O-methyl-di-epi-agelastatin A [(−)-50]	> 10
(−)-dehydroagelastatin A [(−)-51]	> 10
(−)-di-epi-agelastatin C [(−)-52]	> 10

Same assay, conditions: Homo sapiens

Compound	IC50 [µM]
CO[C@H]1NC(=O)c2ccc(Br)n2[C@@H]1Cc1c[nH]c(=O)n1C [(+)-39, (+)-O-methyl-pre-agelastatin A]	> 10
